Holding throughout (format): in vivo, mouse
Assay [1] is described as follows: Body, testis and seminal vesicle weights after hormonal treatments. On the procedure: (§1) For the chronic administration paradigms, silastic tubes (1.02 mm inner diameter×2.16 mm outer diameter) were filled with testosterone (10 mm) or 17β-Estradiol (E2; 1,3 and 10 mm; Sigma-Aldrich, St. Louis, MO, USA). Silastic implants were primed in 0.9% saline at 37° C. overnight prior to their subcutaneous use. Letrozole (1 mg/kg/day; Sigma-Aldrich, St. Louis, MO, USA) was dissolved in propylene glycol (MP Biomedicals, Santa Ana, CA, USA) and administered through ALZET minipumps (Model 1002, 0.25 μl/hour, 14 days; Cupertino, CA, USA). DHED (synthesized using previously described methods) was dissolved in 0.9% saline and administered through ALZET minipumps (Model 1002, 0.25 μl/hour, 14 days; Cupertino, CA, USA) at a dose of […]. Flutamide was administered through 1.5 mg slow-release subcutaneous pellets (Innovative Research of America, Sarasota, FL, USA). For acute administration, 17β-Estradiol (E2; 10 and […]) was dissolved in sesame oil (4 ml/kg, s.c.; Sigma-Aldrich, St. Louis, MO, USA).
Subcutaneous implantations were performed during the same time as the orchiectomies. The surgical area was thoroughly cleaned with Betadine solution (10% povidone-iodine surgical scrub) followed by 70% ethanol. A small, approximately 1-cm incision was made between the scapulae using a pair of small sterile surgical scissors. Hemostats were then inserted and spread laterally to the incision to create a cavity in the subcutaneous space in which ALZET mini-osmotic pumps or silastic implants were inserted for continuous drug/vehicle delivery. The skin was closed with suturing.

Assay [2] has as its system male mice. The assay can be described thus: Subthreshold social defeat stress (SSDS) followed by social interaction test. Conditions: for stress-induced social interaction deficits: chronic treatment (silastic implant or minipump), orchiectomized male mice + SSDS; for social interaction (sociability) deficits: orchiectomized male mice. On the procedure: Subthreshold social defeat stress: Retired CD1 breeders are singly housed and used as aggressors. Experimental mice are introduced to the home cage of an aggressor for 2 min to initiate the physical attack phase. Afterward, mice are transferred and housed on the opposite side of the aggressor, in the same cage separated by a perforated Plexiglass divider for 15 mins in order to maintain sensory contact. This process is repeated 3 times over a period of ~50 min.
(§2) Social Interaction: Mice are placed in a rectangular box (40 cm length×30 cm width×35 cm height; Stoelting, IL) divided into three compartments (two equal-sized end-chambers and a middle chamber) for five minute habituation phase (10-15 lux). After the habituation phase, two small wire cages are introduced into the two end chambers, one containing an unfamiliar, non-aggressive CD1 mouse and the other remaining empty. The amount of time mice spent sniffing each cage during the five-min test is assessed using CleverSys tracking software (CleverSys, Inc, Reston VA, USA).
as §1
Retired CD1 breeders were singly housed and used as aggressors. Two days prior to the start of the experiment, experimental mice were also singly housed. The stress procedure was performed using previously described methods. Briefly, experimental mice were introduced to the home cage of an aggressor for 2 min to initiate the physical attack phase. Afterward, mice were transferred and housed on the opposite side of the aggressor, in the same cage separated by a perforated Plexiglass divider for 15 mins in order to maintain sensory contact. This process was repeated 3 times over a period of ~50 min. Following the completion of the third cycle, mice were placed back in their home cages.
Acute E2 was administered 45 min prior to the initiation of stress or 5 min after the completion of stress. For the optogenetic stimulation, ChR2 and YFP-injected mice received a 4 Hz, 5 ms pulse width, 10-15 mW 470 nm light stimulation for 45 min prior to the initiation of stress. This stimulation paradigm was shown previously to increase synaptic transmission. The optogenetic set up consisted of an LED driver paired with a fiber-coupled LED light source attached to a bifurcated optogenetic path cable (400 μm, 0.49 NA; ThorLabs, Newton NJ, USA).
as §2, with “Social interaction was performed 24 hours following subthreshold social defeat or inescapable foot-shock stress. For the habituation phase, mice were” for “Social Interaction: Mice are”, “five minutes” for “five minute habituation phase”, “cages were” for “cages are”, “test was” for “test is”

The subject of assay [3] is male mice. The assay is described as follows: Stress-moderated acquisition, extinction and reinstatement of fear. As to conditions: orchiectomized males + subthreshold SDS, 10 mm silastic implant. The source says:
Determine the role of E2 in stress-moderated acquisition, extinction, and reinstatement of fear responses in males. Animal approaches to study PTSD should include an inescapable severe stressor. These experiments assess interactions between a stress and the effects of E2. […] For either result, it is critical to understand if E2 mediates interactions with stress. This is because the acquisition of fear is an adaptive response that is not considered pathological in and of itself. However, veterans have often encountered stressful circumstances that lead to an exaggerated and pathological state of fear, which is both resistant to extinction and highly susceptible to relapse. Considering that social stress is an important risk factor contributing toward the onset of PTSD in response to a traumatic event, the social defeat stress paradigm is utilized in order to model the conditions under which veterans develop PTSD. […] It is anticipated that sub-threshold SDS (rather than 10 day) paradigm is sufficient to induce effects in orchiectomized mice. […] Mice are assessed for social interaction deficits 24 hours after the subthreshold defeat sessions to determine if they are resilient or susceptible. n=18/mice per group is used to account for only a subset of mice being susceptible to stress. […]

For `C[C@]12CC[C@@H]3c4ccc(O)cc4CC[C@H]3[C@@H]1CC[C@@H]2O` [Example E2, 17β-Estradiol], in assay [1] (chronic treatment), the body weight entry is on record as “increased body weight” and the seminal vesicle weight result was “increased”. The “relative seminal vesicle weights” value in assay [1] (s.c. treatment, compared to vehicle (saline) control) is “significant increase”. In the assay with male mice [2], the “stress-induced social interaction deficits” value is “reversed the stress-induced social avoidance”. Moreover, in the assay with male mice [2] (acute administration 5 min after SSDS), the “social interaction (sociability) deficits” value was “reversed only the anhedonia phenotype”. For the same molecule, the “social interaction (sociability) deficits” value with male mice [2] (acute s.c. administration 45 min prior to SSDS) was “prevented the development of both sociability deficits”. For the same molecule, the “stress-susceptible phenotype induced by low testosterone” value in the assay with male mice [2] (orchiectomized mice on low dose testosterone + SSDS) was “completely recover the phenotype”. Besides, the “stress effect on extinction of conditioned fear and reinstatement” value with male mice [3] was “reversed”.

With `C[C@]12CC[C@H]3[C@@H](CCC4=CC(=O)CC[C@@]43C)[C@@H]1CC[C@@H]2O` [Testosterone, testosterone], in assay [1] (chronic treatment), the body weight entry is recorded as “increased body weight”, the seminal vesicle weight result is reported as “reversed” and the testis weight result is on record as “decreased testis weight”. For the same molecule, the “stress-induced social interaction deficits” value with male mice [2] is reported as “reversed the observed maladaptive behaviors”. The “maladaptive behaviors (social interaction, anhedonia)” value in the assay on male mice [2] (chronic treatment, gonadally intact or non-stressed mice) is “no effect”. In addition, the “stress effect on extinction of conditioned fear and reinstatement” value in the assay with male mice [3] is “reversed”.

For the origin of these results see US20260248809A1, “ESTRADIOL PRODRUGS AND METHODS OF USE THEREOF” (UNIVERSITY OF MARYLAND, BALTIMORE, priority 2022, published 2026).
